Laboratory results from patent US8975417B2, “Pyrazolopyrrolidine derivatives and their use in the treatment of disease” (Novartis AG, priority 2013, dated 2015).

Tested on: MV-4-11 cells
Experiment: Cell growth inhibition assay (CellTiter-Glo), MV-4-11
Format: cell-based
Conditions: Homo sapiens, MV4-11, read-out: MV-4-11 TGI
Outline: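 Dose-response over 3-fold dilutions from 10 μM; 0.1% DMSO control. Endpoint: CellTiter-Glo ATP signal, background-subtracted and day 0-corrected.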

| Compound | IC (total growth inhibition) |
| --- | --- |
| Cc1nn(C2CC2)c2c1[C@@H](c1ccc(Cl)cc1)N(c1cc(C)c(=O)n(C)c1)C2=O [Example 49, (R)-4-(4-chlorophenyl)-1-cyclopropyl-5-(1,5-dimethyl-6-oxo-1,6-dihydropyridin-3-yl)-3-methyl-4,5-dihydropyrrolo[3,4-c]pyrazol-6(1H)-one] | 0.0394 µM |
| Cc1nn(C(=O)N(C)C)c2c1[C@@H](c1ccc(Cl)cc1)N(c1cc(C)c3nnc(C)n3c1)C2=O [Example 149, (R)-4-(4-chlorophenyl)-5-(3,8-dimethyl-[1,2,4]triazolo[4,3-a]pyridin-6-yl)-N,N,3-trimethyl-6-oxo-5,6-dihydropyrrolo[3,4-c]pyrazole-1(4H)-carboxamide] | 0.0505 µM |
| Cc1nn(C2COC2)c2c1C(c1ccc(Cl)cc1)N(c1cc(C)c(=O)n(C)c1)C2=O (stereo not drawn) [Example 135, 4-(4-chlorophenyl)-5-(1,5-dimethyl-6-oxo-1,6-dihydropyridin-3-yl)-3-methyl-1-(oxetan-3-yl)-4,5-dihydropyrrolo[3,4-c]pyrazol-6(1H)-one] | 0.126 µM |
| Cc1cc(N2C(=O)c3c(cnn3C3CC3)C2c2ccc(Cl)cc2)cn(C)c1=O (stereo not drawn) [Example 34, 4-(4-chlorophenyl)-1-cyclopropyl-5-(1,5-dimethyl-6-oxo-1,6-dihydropyridin-3-yl)-4,5-dihydropyrrolo[3,4-c]pyrazol-6(1H)-one] | 0.14 µM |
| CC(=O)Nc1cc(N2C(=O)c3c(c(C)nn3C3CC3)C2c2ccc(Cl)cc2)nn2c(C)nnc12 (stereo not drawn) [Example 126, N-(6-(4-(4-chlorophenyl)-1-cyclopropyl-3-methyl-6-oxopyrrolo[3,4-c]pyrazol-5-(1H,4H,6H)-yl)-3-methyl-[1,2,4]triazolo[4,3-b]pyridazin-8-yl)acetamide] | 0.682 µM |
| COc1ncccc1-n1nc(C)c2c1C(=O)N(c1cc(Cl)c(=O)n(C)c1)C2c1ccc(Cl)cc1 (stereo not drawn) [Example 72, 5-(5-chloro-1-methyl-6-oxo-1,6-dihydropyridin-3-yl)-4-(4-chlorophenyl)-1-(2-methoxypyridin-3-yl)-3-methyl-4,5-dihydropyrrolo[3,4-c]pyrazol-6(1H)-one] | 0.164 µM |
| Cc1nn(C2CC2)c2c1C(c1ccc(OC(F)(F)F)cc1)N(c1cc(C)c(=O)n(C)c1)C2=O (stereo not drawn) [Example 95, 1-cyclopropyl-5-(1,5-dimethyl-6-oxo-1,6-dihydropyridin-3-yl)-3-methyl-4-(4-(trifluoromethoxy)phenyl)-4,5-dihydropyrrolo[3,4-c]pyrazol-6(1H)-one] | 0.27 µM |
| Cc1nn(C2COC2)c2c1C(c1ccc(Cl)cc1)N(c1cc(C)c3nnc(C)n3c1)C2=O (stereo not drawn) [Example 137, 4-(4-chlorophenyl)-5-(3,8-dimethyl-[1,2,4]triazolo[4,3-a]pyridin-6-yl)-3-methyl-1-(oxetan-3-yl)-4,5-dihydropyrrolo[3,4-c]pyrazol-6(1H)-one] | 0.0421 µM |
| CC(=O)N1CC(n2nc(C)c3c2C(=O)N(c2cc(C)c4nnc(C)n4c2)C3c2ccc(Cl)cc2)C1 (stereo not drawn) [Example 154, 1-(1-acetylazetidin-3-yl)-4-(4-chlorophenyl)-5-(3,8-dimethyl-[1,2,4]triazolo[4,3-a]pyridin-6-yl)-3-methyl-4,5-dihydropyrrolo[3,4-c]pyrazol-6(1H)-one] | 0.112 µM |
| Cc1cc(N2C(=O)c3nn(C4COC4)c(C)c3C2c2ccc(Cl)cc2)cn2c(C)nnc12 (stereo not drawn) [Example 136, 4-(4-chlorophenyl)-5-(3,8-dimethyl-[1,2,4]triazolo[4,3-a]pyridin-6-yl)-3-methyl-2-(oxetan-3-yl)-4,5-dihydropyrrolo[3,4-c]pyrazol-6(2H)-one] | 0.041 µM |
| Cc1nn(C2CN(C)C2)c2c1C(c1ccc(Cl)cc1)N(c1cc(C)c3nnc(C)n3c1)C2=O (stereo not drawn) [Example 157, 4-(4-chlorophenyl)-5-(3,8-dimethyl-[1,2,4]triazolo[4,3-a]pyridin-6-yl)-3-methyl-1-(1-methylazetidin-3-yl)-4,5-dihydropyrrolo[3,4-c]pyrazol-6(1H)-one] | 0.0833 µM |
| CCc1c2c(nn1C(=O)N(C)C)C(=O)N(c1cc(C)c(=O)n(C)c1)C2c1ccc(Cl)cc1 (stereo not drawn) [Example 148, 4-(4-chlorophenyl)-5-(1,5-dimethyl-6-oxo-1,6-dihydropyridin-3-yl)-3-ethyl-N,N-dimethyl-6-oxo-5,6-dihydropyrrolo[3,4-c]pyrazole-2(4H)-carboxamide] | 0.114 µM |
| CCc1nn(C2CC2)c2c1[C@H](c1ccc(Cl)cc1)N(c1cc(C)c3nnc(C)n3c1)C2=O [Example 106, (S)-4-(4-chlorophenyl)-1-cyclopropyl-5-(3,8-dimethyl-[1,2,4]triazolo[4,3-a]pyridin-6-yl)-3-ethyl-4,5-dihydropyrrolo[3,4-c]pyrazol-6(1H)-one] | 1.48 µM |
| COc1ncccc1-n1nc(C)c2c1C(=O)N(c1cc(C)c3nnc(C)n3n1)C2c1ccc(Cl)cc1 (stereo not drawn) [Example 111, 4-(4-chlorophenyl)-5-(3,8-dimethyl-[1,2,4]triazolo[4,3-b]pyridazin-6-yl)-1-(2-methoxypyridin-3-yl)-3-methyl-4,5-dihydropyrrolo[3,4-c]pyrazol-6(1H)-one] | 0.0306 µM |
| Cc1nn(-c2ccnn2C)c2c1C(c1ccc(Cl)cc1)N(c1cc(C)c3nnc(C)n3c1)C2=O (stereo not drawn) [Example 90, 4-(4-chlorophenyl)-5-(3,8-dimethyl-[1,2,4]triazolo[4,3-a]pyridin-6-yl)-3-methyl-1-(1-methyl-1H-pyrazol-5-yl)-4,5-dihydropyrrolo[3,4-c]pyrazol-6(1H)-one] | 0.0436 µM |
| Cc1cc(N2C(=O)c3nn(C4CNC4)c(C)c3C2c2ccc(Cl)cc2)cn2c(C)nnc12 (stereo not drawn) [Example 152, 2-(azetidin-3-yl)-4-(4-chlorophenyl)-5-(3,8-dimethyl-[1,2,4]triazolo[4,3-a]pyridin-6-yl)-3-methyl-4,5-dihydropyrrolo[3,4-c]pyrazol-6(2H)-one] | 0.8 µM |
| Cc1cc(N2C(=O)c3nn(C(=O)N(C)C)c(C)c3C2c2ccc(Cl)cc2)cn(C)c1=O (stereo not drawn) [Example 141, 4-(4-chlorophenyl)-5-(1,5-dimethyl-6-oxo-1,6-dihydropyridin-3-yl)-N,N,3-trimethyl-6-oxo-5,6-dihydropyrrolo[3,4-c]pyrazole-2(4H)-carboxamide] | 0.222 µM |
| CNC(=O)n1nc(C)c2c1C(=O)N(c1cc(C)c3nnc(C)n3c1)C2c1ccc(Cl)cc1 (stereo not drawn) [Example 145, 4-(4-chlorophenyl)-5-(3,8-dimethyl-[1,2,4]triazolo[4,3-a]pyridin-6-yl)-N,3-dimethyl-6-oxo-5,6-dihydropyrrolo[3,4-c]pyrazole-1(4H)-carboxamide] | 0.093 µM |
| COc1ncc(-n2nc3c(c2C)C(c2ccc(Cl)cc2)N(c2cc(Cl)c(=O)n(C)c2)C3=O)c(OC)n1 (stereo not drawn) [Example 55, 5-(5-chloro-1-methyl-6-oxo-1,6-dihydropyridin-3-yl)-4-(4-chlorophenyl)-2-(2,4-dimethoxypyrimidin-5-yl)-3-methyl-4,5-dihydropyrrolo[3,4-c]pyrazol-6(2H)-one] | 0.123 µM |
| COc1ncccc1-n1nc(C)c2c1C(=O)N(c1cc(C)c3nnc(C)n3c1)C2c1ccc(Cl)cc1 (stereo not drawn) [Example 101, 4-(4-chlorophenyl)-5-(3,8-dimethyl-[1,2,4]triazolo[4,3-a]pyridin-6-yl)-1-(2-methoxypyridin-3-yl)-3-methyl-4,5-dihydropyrrolo[3,4-c]pyrazol-6(1H)-one] | 0.0447 µM |
| Cc1nn(C2CC2)c2c1[C@@H](c1ccc(Cl)cc1)N(c1cc(Cl)c(=O)n(C)c1)C2=O [Example 51, (R)-5-(5-chloro-1-methyl-6-oxo-1,6-dihydropyridin-3-yl)-4-(4-chlorophenyl)-1-cyclopropyl-3-methyl-4,5-dihydropyrrolo[3,4-c]pyrazol-6(1H)-one] | 0.0883 µM |
| CCc1nn(CCO)c2c1C(c1ccc(Cl)cc1)N(c1cc(C)c(=O)n(C)c1)C2=O (stereo not drawn) [Example 78, 4-(4-chlorophenyl)-5-(1,5-dimethyl-6-oxo-1,6-dihydropyridin-3-yl)-3-ethyl-1-(2-hydroxyethyl)-4,5-dihydropyrrolo[3,4-c]pyrazol-6(1H)-one] | 0.0855 µM |
| CCOC(=O)N1CC(n2nc(C)c3c2C(=O)N(c2cc(C)c4nnc(C)n4c2)C3c2ccc(Cl)cc2)C1 (stereo not drawn) [Example 156, Ethyl 3-(4-(4-chlorophenyl)-5-(3,8-dimethyl-[1,2,4]triazolo[4,3-a]pyridin-6-yl)-3-methyl-6-oxo-5,6-dihydropyrrolo[3,4-c]pyrazol-1(4H)-yl)azetidine-1-carboxylate] | 0.058 µM |
| Cc1nn(C2CC2)c2c1C(c1ccc(Cl)cc1)N(c1cc(N(C)C(=O)OC(C)(C)C)c3nnc(C)n3n1)C2=O (stereo not drawn) [Example 112, tert-butyl (6-(4-(4-chlorophenyl)-1-cyclopropyl-3-methyl-6-oxopyrrolo[3,4-c]pyrazol-5(1H,4H,6H)-yl)-3-methyl-[1,2,4]triazolo[4,3-b]pyridazin-8-yl)(methyl)carbamate] | 1.21 µM |
| Cc1nn(-c2ccnn2C)c2c1[C@H](c1ccc(Cl)cc1)N(c1cc(C)c3nnc(C)n3c1)C2=O [Example 124, (S)-4-(4-chlorophenyl)-5-(3,8-dimethyl-[1,2,4]triazolo[4,3-a]pyridin-6-yl)-3-methyl-1-(1-methyl-1H-pyrazol-5-yl)-4,5-dihydropyrrolo[3,4-c]pyrazol-6(1H)-one] | 0.73 µM |
| Cc1nn(C2CC2)c2c1C(c1ccc(C(F)(F)F)cc1)N(c1cc(C)c(=O)n(C)c1)C2=O (stereo not drawn) [Example 97, 1-cyclopropyl-5-(1,5-dimethyl-6-oxo-1,6-dihydropyridin-3-yl)-3-methyl-4-(4-(trifluoromethyl)phenyl)-4,5-dihydropyrrolo[3,4-c]pyrazol-6(1H)-one] | 0.12 µM |
| CCOc1c2c(nn1C)C(=O)N(c1cc(C)c(=O)n(C)c1)C2c1ccc(Cl)cc1 (stereo not drawn) [Example 76, 4-(4-chlorophenyl)-5-(1,5-dimethyl-6-oxo-1,6-dihydropyridin-3-yl)-3-ethoxy-2-methyl-4,5-dihydropyrrolo[3,4-c]pyrazol-6(2H)-one] | 0.107 µM |
